Experimental findings from EP0326329B1, “Quinazoline derivatives useful as insecticides” (Dow AgroSciences LLC, priority 1988, dated 1989) are described below.

Common to all, as to format: in vivo
Data set [1] has as its system Erysiphe graminis tritici (powdery mildew). Put plainly: Greenhouse Test 1, foliar spray fungicide screen (POWD MDEW), host wheat. To be noted: disease control rating, 400 ppm (+++ at 100 ppm).
Data set [2] deals with Pyricularia oryzae (rice blast). To be noted: disease control rating, foliar spray, host rice; 400 ppm (+++ at 100 ppm).
Data set [3] relates to Puccinia recondita tritici (leaf rust). Put plainly: Greenhouse Test 1, foliar spray fungicide screen (LEAF RUST), host wheat. The settings on record: disease control rating, 400 ppm (+++ at 100 ppm).
Data set [4] deals with Botrytis cinerea (gray mold). The experiment in a line: Greenhouse Test 1, foliar spray fungicide screen (GRAY MOLD), host grape berries. The settings on record: disease control rating, 400 ppm (+++ at 100 ppm).
For data set [5], the system named is Pseudoperonospora cubensis (downy mildew). The experiment in a line: Greenhouse Test 1, foliar spray fungicide screen (DOWN MDEW), host squash. To be noted: disease control rating, 400 ppm (+++ at 100 ppm).
The test system of data set [6] is Southern corn rootworm (Diabrotica undecimpuctata howardi Barber). The experiment in a line: Mite/insect screen, soil treatment (CRW). To be noted: percent mortality; for mortality at 12 ppm / mortality at 24 ppm: Diabrotica, soil treatment, read-out: CRW RESULTS %; for mortality at 12 ppm: CRW rate 12.00 ppm; for mortality at 24 ppm: CRW rate 24.00 ppm. Summed up: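 Five 2–3 instar larvae were placed on dry sandy soil with a presoaked corn seed after the soil had received 1 mL of compound solution and dried 6–12 h; cups were kept capped at 23°C. Mortality (%) and phytotoxicity were read after standard exposure. Formulation: acetone/alcohol with emulsifiers, water-diluted.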

Data set [7] has as its system southern armyworm (Spodopetra eridania Cramer). Put plainly: Mite/insect screen, sprayed squash leaves (SAW). The settings on record: percent mortality; for mortality at 200 ppm / mortality at 400 ppm: Spodoptera eridania, read-out: SAW RESULTS %; for mortality at 200 ppm: spray rate 200 ppm; for mortality at 400 ppm: spray rate 400 ppm. In outline: (§1)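 Mortality and phytotoxicity read after standard exposure periods on sprayed squash: cotyledons for melon aphids and twospotted spider mites, excised leaves placed with southern armyworm larvae. Spray solutions were water dilutions of acetone/alcohol stocks containing TOXIMUL R and S emulsifiers, applied to runoff at 10 psi and air-dried one hour.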

For data set [8], the system named is Twospotted spider mites (Tetranychus urticae Koch). Put plainly: Mite/insect screen, sprayed squash cotyledons (SM). The settings on record: percent mortality; for mortality at 200 ppm / mortality at 400 ppm: Tetranychus urticae, read-out: SM RESULTS %; for mortality at 200 ppm: spray rate 200 ppm; for mortality at 400 ppm: spray rate 400 ppm. Summed up: as §1

The subject of data set [9] is melon aphids (Aphis gossypii Glover). The experiment in a line: Mite/insect screen, sprayed squash cotyledons (MA). To be noted: percent mortality; for mortality at 200 ppm / mortality at 400 ppm: Aphis gossypii, read-out: MA RESULTS %; for mortality at 200 ppm: spray rate 200 ppm; for mortality at 400 ppm: spray rate 400 ppm. Summed up: as §1

With `Fc1cccc2c(NCCc3ccc(Oc4ccccc4)cc3)ncnc12` [Example 101, 8-fluoro-N-[2-(4-phenoxyphenyl)ethyl]-4-quinazolinamine], the “POWD MDEW” value in [1] is listed as “+ (+ = 20-89% control at 400 ppm)”. Besides, the “RICE BLAST” value in data set [2] is given as “+++ (+++ = 90-100% control at 100 ppm)”. In addition, in [3], the “LEAF RUST” value is “- (- = 0-19% control at 400 ppm)”. For the same compound, the “GRAY MOLD” value in data set [4] was “++ (++ = 90-100% control at 400 ppm)”. Also, the “DOWN MDEW” value in data set [5] is listed as “+++ (+++ = 90-100% control at 100 ppm)”. Moreover, the mortality at 12 ppm in data set [6] worked out at 100%. Also, the mortality at 24 ppm in data set [6] came out at 0%. Also, the mortality at 200 ppm turned out to be 100% in [7], 100% in data set [8] and 80% in [9]. Moreover, the figures for the mortality at 400 ppm in [7], in [8] and in [9] were 0%, 100% and 100%, respectively.
In the case of `Fc1cccc2c(NCCc3ccc(-c4ccccc4)cc3)ncnc12` [Example 102, 8-fluoro-N-[2-(1,1'-biphenyl)-4-ylethyl]-4-quinazolinamine], in data set [1], the “POWD MDEW” value was “++ (++ = 90-100% control at 400 ppm)”. In addition, the “RICE BLAST” value in data set [2] was “+++ (+++ = 90-100% control at 100 ppm)”. For the same compound, the “LEAF RUST” value in [3] is recorded as “+++ (+++ = 90-100% control at 100 ppm)”. Moreover, in data set [4], the “GRAY MOLD” value is “++ (++ = 90-100% control at 400 ppm)”. In addition, the “DOWN MDEW” value in data set [5] is on record as “++ (++ = 90-100% control at 400 ppm)”. For the same compound, in [6], the mortality at 12 ppm amounted to 0% and the mortality at 24 ppm was 0%. In data set [7], the mortality at 200 ppm is 80% and the mortality at 400 ppm was 100%. In addition, in data set [8], the mortality at 200 ppm stood at 80% and the mortality at 400 ppm worked out at 90%. In data set [9], the mortality at 200 ppm came out at 80% and the mortality at 400 ppm was 90%.
For the compound `Cc1ccccc1CCOc1ncnc2ccccc12` [Example 103, 4-[2-(2-methylphenyl)ethoxy]quinazoline], in data set [1], the “POWD MDEW” value was “+ (+ = 20-89% control at 400 ppm)”. Moreover, the “RICE BLAST” value in data set [2] is recorded as “+ (+ = 20-89% control at 400 ppm)”. For the same compound, the “LEAF RUST” value in data set [3] is given as “+++ (+++ = 90-100% control at 100 ppm)”. The “GRAY MOLD” value in data set [4] is listed as “- (- = 0-19% control at 400 ppm)”. For the same compound, the “DOWN MDEW” value in [5] is listed as “+ (+ = 20-89% control at 400 ppm)”. Further, the mortality at 24 ppm in [6] is 0%. The mortality at 400 ppm in data set [7], in data set [8] and in [9] was 0% throughout.
In the case of `c1ccc(Oc2ccc(CCNc3ncnc4ccccc34)cc2)cc1` [Example 104, N-[2-(4-phenoxyphenyl)ethyl]-4-quinazolinamine], the “POWD MDEW” value in data set [1] is given as “+++ (+++ = 90-100% control at 100 ppm)”. In data set [2], the “RICE BLAST” value is on record as “+++ (+++ = 90-100% control at 100 ppm)”. In addition, the “LEAF RUST” value in [3] is reported as “+++ (+++ = 90-100% control at 100 ppm)”. Also, the “GRAY MOLD” value in data set [4] was “- (- = 0-19% control at 400 ppm)”. In [5], the “DOWN MDEW” value is listed as “+++ (+++ = 90-100% control at 100 ppm)”. In addition, the mortality at 24 ppm in data set [6] stood at 100%. Further, the “CRW RESULTS %” value in [6] (rate not given) amounted to 0%. Moreover, the mortality at 400 ppm in data set [7] is 100%; in data set [8], 0%; in [9], 0%. Further, the “SAW RESULTS %” value in [7] (rate not given) is reported as 0%. In addition, in data set [8] (rate not given), the “SM RESULTS %” value is on record as 100%. The “MA RESULTS %” value in [9] (rate not given) is given as 100%.
With `OC(CNc1ncnc2ccccc12)c1ccc2ccccc2c1` (stereo not drawn) [Example 105, α-[(4-quinazolinylamino)methyl]-2-naphthalenemethanol], the “POWD MDEW” value in data set [1] is given as “- (- = 0-19% control at 400 ppm)”. Further, the “RICE BLAST” value in [2] was “+ (+ = 20-89% control at 400 ppm)”. Besides, the “LEAF RUST” value in data set [3] is “++ (++ = 90-100% control at 400 ppm)”. For the same compound, the “GRAY MOLD” value in data set [4] is listed as “- (- = 0-19% control at 400 ppm)”. For the same compound, the “DOWN MDEW” value in data set [5] was “- (- = 0-19% control at 400 ppm)”. In addition, the mortality at 24 ppm in data set [6] was determined as 0%. Moreover, the mortality at 400 ppm in [7], in data set [8] and in [9] was 0% in each case.
On to `Oc1cccc(CCOc2ncnc3ccccc23)c1` [Example 111, 4-[2-(3-hydroxyphenyl)ethoxy]quinazoline], for which the “POWD MDEW” value in data set [1] is recorded as “- (- = 0-19% control at 400 ppm)”. The “RICE BLAST” value in [2] is “++ (++ = 90-100% control at 400 ppm)”. The “LEAF RUST” value in [3] is “+ (+ = 20-89% control at 400 ppm)”. Further, the “GRAY MOLD” value in [4] is reported as “- (- = 0-19% control at 400 ppm)”. Also, the “DOWN MDEW” value in data set [5] was “+ (+ = 20-89% control at 400 ppm)”. Also, the mortality at 12 ppm in data set [6] stood at 0%. Besides, the mortality at 24 ppm in data set [6] turned out to be 0%. Also, the mortality at 200 ppm in data set [7], in data set [8] and in data set [9] was 0% in each case. Further, the mortality at 400 ppm in [7], in data set [8] and in data set [9] was 0% in each case.
As to `COc1ccc(CCOc2ncnc3c(F)cccc23)cc1OC` [Example 112, 8-fluoro-4-[2-(3,4-dimethoxyphenyl)ethoxy]quinazoline], the “POWD MDEW” value in [1] is “+ (+ = 20-89% control at 400 ppm)”. In addition, in data set [2], the “RICE BLAST” value is on record as “+++ (+++ = 90-100% control at 100 ppm)”. In addition, the “LEAF RUST” value in [3] was “+++ (+++ = 90-100% control at 100 ppm)”. The “GRAY MOLD” value in data set [4] is reported as “- (- = 0-19% control at 400 ppm)”. Further, the “DOWN MDEW” value in [5] is “+++ (+++ = 90-100% control at 100 ppm)”. For the same compound, the mortality at 12 ppm in data set [6] is 0%. Besides, the mortality at 24 ppm in [6] amounted to 0%. In addition, the values for the mortality at 200 ppm in data set [7], in data set [8] and in [9] were 0%, 0% and 80%, respectively. For the same compound, the mortality at 400 ppm in data set [7], in data set [8] and in data set [9] was 0% in each case.
Consider `CC(C)Cc1ccc(C(C)COc2ncnc3c(F)cccc23)cc1` (centres unmarked) [Example 113, 8-fluoro-4-[2-[4-(2-methylpropyl)phenyl]propoxy]quinazoline], for which the “POWD MDEW” value in data set [1] was “+ (+ = 20-89% control at 400 ppm)”. Besides, the “RICE BLAST” value in data set [2] is given as “+++ (+++ = 90-100% control at 100 ppm)”. Further, the “LEAF RUST” value in [3] is given as “+++ (+++ = 90-100% control at 100 ppm)”. Also, the “GRAY MOLD” value in data set [4] is reported as “- (- = 0-19% control at 400 ppm)”. The “DOWN MDEW” value in data set [5] is on record as “+++ (+++ = 90-100% control at 100 ppm)”. In data set [6], the mortality at 12 ppm came out at 0% and the mortality at 24 ppm was 0%. Also, in [7], the mortality at 200 ppm turned out to be 0% and the mortality at 400 ppm worked out at 40%. Further, in [8], the mortality at 200 ppm worked out at 100% and the mortality at 400 ppm is 0%. Also, in data set [9], the mortality at 200 ppm was found to be 100% and the mortality at 400 ppm came out at 0%.
In the case of `Oc1ccccc1CCOc1ncnc2ccccc12` [Example 114, 4-[2-(2-hydroxyphenyl)ethoxy]quinazoline], the “POWD MDEW” value in data set [1] is “- (- = 0-19% control at 400 ppm)”. Further, the “RICE BLAST” value in [2] is reported as “- (- = 0-19% control at 400 ppm)”. Moreover, the “LEAF RUST” value in data set [3] is “+ (+ = 20-89% control at 400 ppm)”. Also, the “GRAY MOLD” value in data set [4] is given as “- (- = 0-19% control at 400 ppm)”. The “DOWN MDEW” value in data set [5] is on record as “+ (+ = 20-89% control at 400 ppm)”. In data set [6], the mortality at 12 ppm came to 0% and the mortality at 24 ppm is 0%. Further, in data set [7], the mortality at 200 ppm was found to be 0% and the mortality at 400 ppm is 0%. Further, in data set [8], the mortality at 200 ppm amounted to 0% and the mortality at 400 ppm was 0%. Moreover, in [9], the mortality at 200 ppm came out at 60% and the mortality at 400 ppm was found to be 0%.
As to `Oc1ccc(CCOc2ncnc3ccccc23)cc1` [Example 115, 4-[2-(4-hydroxyphenyl)ethoxy]quinazoline], the “POWD MDEW” value in data set [1] is recorded as “+ (+ = 20-89% control at 400 ppm)”. Also, the “RICE BLAST” value in data set [2] was “+ (+ = 20-89% control at 400 ppm)”. Besides, in data set [3], the “LEAF RUST” value was “+++ (+++ = 90-100% control at 100 ppm)”. Besides, in data set [4], the “GRAY MOLD” value is “- (- = 0-19% control at 400 ppm)”. The “DOWN MDEW” value in data set [5] is listed as “+ (+ = 20-89% control at 400 ppm)”. Further, in data set [6], the mortality at 12 ppm came to 0%. The mortality at 24 ppm in [6] was 0%. Further, the mortality at 200 ppm in data set [7], in data set [8] and in data set [9] was 0% in each case. Besides, the mortality at 400 ppm in data set [7], in data set [8] and in data set [9] was 0% throughout.
